In US5270342A, “Acetamide derivatives” (Imperial Chemical Industries PLC, priority 1990, dated 1993):

What was measured:
aldose reductase [1] = biological target: T1, aldose reductase (Bos taurus, UniProt P16116); assay: inhibition in vitro of partially purified aldose reductase isolated from bovine lenses (spectrophotometric); assay type: biochemical; conditions: bovine lens aldose reductase
T1 construct: partially purified aldose reductase is isolated in known manner from bovine lenses; from tissue; host or cells: bovine lenses
Description: Thus, in a standard procedure partially purified aldose reductase is isolated in known manner from bovine lenses. The percentage inhibition of this enzyme's ability in vitro to catalyse the reduction of aldoses to polyhydric alcohols, and particularly to reduce glucose to sorbitol, caused by a test compound can then be determined using standard spectrophotometric methods.

aldose reductase [2] = assay: reduction of sciatic nerve sorbitol in streptozotocin-diabetic rats (inhibition of aldose reductase in vivo); design: species or system rat; conditions: 5 daily oral doses of 3 mg/kg
Description: Rats are made diabetic (as evidenced by severe glucosuria being present) by dosing with streptozotocin. The animals are then dosed daily with the test compound for one, two or five days. The animals are then sacrificed 2-6 hours after the final dose and the eye lenses and/or sciatic nerves are removed. After a standard work-up procedure the residual sorbitol levels in each tissue are determined by gas liquid chromatography after conversion to the polytrimethylsilyl derivatives. Inhibition of aldose reductase in vivo can then be assessed by comparing the residual sorbitol levels in tissues from the dosed diabetic group of rats with those of an undosed group of diabetic rats and an undosed group of normal rats.
In a variation of the above test diabetic rats are dosed at a fixed daily oral dose for five days and then sacrificed 6 hours after the final dose and the reduction of sciatic nerve sorbitol assessed relative to that in control animals.

IC50 (aldose reductase [1]): 0.118 µM
Structure (SMILES): Cc1cc(NC(=O)Cc2ccccc2)cc(C)c1S(=O)(=O)C[N+](=O)[O-] [Example 1, (2,6-dimethyl-4-[phenylacetamido]phenylsulfonyl)nitromethane]
reduction in sciatic nerve sorbitol levels (aldose reductase [2]): 83%
